Measurements reported in paper PMC5410339, “dUTPase inhibition augments replication defects of 5-Fluorouracil” (Oncotarget, 2017).

Tests used:
dUTPase [1] = target: T1, dUTPase (Homo sapiens, UniProt P33316); assay: malachite green activity assay with dUTP as substrate, purified recombinant enzyme; assay type: biochemical
T1 construct: gene DUT; human recombinant dUTPase
T1 sequence (P33316 70-252): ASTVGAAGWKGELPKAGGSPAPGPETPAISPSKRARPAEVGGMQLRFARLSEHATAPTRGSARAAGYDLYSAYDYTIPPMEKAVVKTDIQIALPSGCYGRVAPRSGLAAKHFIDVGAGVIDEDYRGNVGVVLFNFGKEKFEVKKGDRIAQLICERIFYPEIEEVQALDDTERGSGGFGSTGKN

dUTPase [2] = target: T1, dUTPase; assay: malachite green assay of substrate hydrolysis by purified enzyme; assay type: biochemical

| Compound | IC50 (dUTPase [1]) [nM] | malachite green assay of substrate hydrolysis by purified enzyme (dUTPase [2]) |
| --- | --- | --- |
| CC(NS(=O)(=O)CCCOCn1ccc(=O)[nH]c1=O)c1cccc(OC2CCCC2)c1 (stereo not shown) [compound 2] | 25 |  |
| O=c1ccn([C@H]2C[C@H](O)[C@@H](COP(=O)(O)OP(=O)(O)OP(=O)(O)O)O2)c(=O)[nH]1 [dUTP] |  | 6.6 μM formed PPi per second per μM enzyme |
| O=C(CCCn1ccc(=O)[nH]c1=O)N1CCC[C@H]1C(c1ccccc1)c1ccccc1 [compound 1] | 740 |  |
| O=c1[nH]c(=O)n([C@H]2C[C@H](O)[C@@H](COP(=O)(O)OP(=O)(O)OP(=O)(O)O)O2)cc1F [5-FdUTP] |  | 5.5 μM formed PPi per second per μM enzyme |
